From PubChem BioAssay AID1259407 (Chemical Carcinogenesis Research Information System (CCRIS), 2018) come the findings set out here.

Molecules are shown by their SMILES. Active and inactive are the calls of the source. The rule behind the calls is not given here.

The subject of this data set is CCRIS mutagenicity, Ames/micronucleus/aberration tests. The experiment in a line: CCRIS mutagenicity studies.
[1] abbreviates: Test System: AMES SALMONELLA TYPHIMURIUM, Strain/Indicator: TA98, Metabolic Activation: NONE, Method: STANDARD PLATE.
Setting [2] is: Test System: AMES SALMONELLA TYPHIMURIUM, Strain/Indicator: TA100, Metabolic Activation: NONE, Method: STANDARD PLATE.

For the molecule `Oc1ccc2c(c1)OCO2`, the mutagenic call (Test System: AMES SALMONELLA TYPHIMURIUM, Strain/Indicator: TA98, Metabolic Activation: HAMSTER, LIVER, S-9, AROCLOR 1254, Method: STANDARD PLATE) was “inactive; negative”; the mutagenic call under setting [1] was “inactive; negative”; the mutagenic call (Test System: AMES SALMONELLA TYPHIMURIUM, Strain/Indicator: TA98, Metabolic Activation: RAT, LIVER, S-9, AROCLOR 1254, Method: STANDARD PLATE) was “inactive; negative”; the mutagenic call (Test System: AMES SALMONELLA TYPHIMURIUM, Strain/Indicator: TA100, Metabolic Activation: HAMSTER, LIVER, S-9, AROCLOR 1254, Method: STANDARD PLATE) is “inactive; negative”; the mutagenic call under setting [2] is “inactive; negative”; the mutagenic call (Test System: AMES SALMONELLA TYPHIMURIUM, Strain/Indicator: TA100, Metabolic Activation: RAT, LIVER, S-9, AROCLOR 1254, Method: STANDARD PLATE) is “inactive; negative”. The mutagenic call is, setting by setting: (Test System: AMES SALMONELLA TYPHIMURIUM, Strain/Indicator: TA1535, Metabolic Activation: HAMSTER, LIVER, S-9, AROCLOR 1254, Method: STANDARD PLATE) “inactive; negative”; (Test System: AMES SALMONELLA TYPHIMURIUM, Strain/Indicator: TA1535, Metabolic Activation: NONE, Method: STANDARD PLATE) “inactive; negative”; (Test System: AMES SALMONELLA TYPHIMURIUM, Strain/Indicator: TA1535, Metabolic Activation: RAT, LIVER, S-9, AROCLOR 1254, Method: STANDARD PLATE) “inactive; negative”; (Test System: AMES SALMONELLA TYPHIMURIUM, Strain/Indicator: TA1537, Metabolic Activation: HAMSTER, LIVER, S-9, AROCLOR 1254, Method: STANDARD PLATE) “inactive; negative”; (Test System: AMES SALMONELLA TYPHIMURIUM, Strain/Indicator: TA1537, Metabolic Activation: NONE, Method: STANDARD PLATE) “inactive; negative”; (Test System: AMES SALMONELLA TYPHIMURIUM, Strain/Indicator: TA1537, Metabolic Activation: RAT, LIVER, S-9, AROCLOR 1254, Method: STANDARD PLATE) “inactive; negative”. Besides, the mutagenic call is “inactive; negative” (Test System: AMES SALMONELLA TYPHIMURIUM, Strain/Indicator: TA1538, Metabolic Activation: HAMSTER, LIVER, S-9, AROCLOR 1254, Method: STANDARD PLATE); “inactive; negative” (Test System: AMES SALMONELLA TYPHIMURIUM, Strain/Indicator: TA1538, Metabolic Activation: NONE, Method: STANDARD PLATE); “inactive; negative” (Test System: AMES SALMONELLA TYPHIMURIUM, Strain/Indicator: TA1538, Metabolic Activation: RAT, LIVER, S-9, AROCLOR 1254, Method: STANDARD PLATE); “active; positive” (Test System: MOUSE LYMPHOMA, Strain/Indicator: L5178Y (TK+/TK-), Metabolic Activation: NONE, Method: SUSPENSION/PLATE); “active; positive” (Test System: MOUSE LYMPHOMA, Strain/Indicator: L5178Y (TK+/TK-), Metabolic Activation: RAT, LIVER, S-9, AROCLOR 1254, Method: SUSPENSION/PLATE); “active; positive” (Test System: Mouse lymphoma, Strain/Indicator: L5178Y (tk+/tk-), Metabolic Activation: None, Method: Suspension/plate). Besides, under “Test System: Mouse lymphoma, Strain/Indicator: L5178Y (tk+/tk-), Metabolic Activation: Rat, Liver, S-9, Aroclor 1254, Method: Suspension/plate”, the mutagenic call is “active; positive”.
Take `c1cnc2c(c1)CCC1OC21` (stereo unspecified): the mutagenic call is “inactive; negative” under setting [2] and “inactive; negative” (Test System: AMES SALMONELLA TYPHIMURIUM, Strain/Indicator: TA100, Metabolic Activation: RAT, LIVER, S-9, AROCLOR 1254 (10 OR 20%), Method: STANDARD PLATE).
`CCOC(=O)Cc1c(C(=O)O)c2ccccc2n1C`: the mutagenic call was “inactive; negative” (Test System: AMES SALMONELLA TYPHIMURIUM, Strain/Indicator: TA97, Metabolic Activation: NONE, Method: STANDARD PLATE); “inactive; negative” (Test System: AMES SALMONELLA TYPHIMURIUM, Strain/Indicator: TA97, Metabolic Activation: RAT, LIVER, S-9, AROCLOR 1254 (4%, 10%), Method: STANDARD PLATE); “inactive; negative” under setting [1]; “inactive; negative” (Test System: AMES SALMONELLA TYPHIMURIUM, Strain/Indicator: TA98, Metabolic Activation: RAT, LIVER, S-9, AROCLOR 1254 (4%, 10%), Method: STANDARD PLATE); “inactive; negative” under setting [2]; “inactive; negative” (Test System: AMES SALMONELLA TYPHIMURIUM, Strain/Indicator: TA100, Metabolic Activation: RAT, LIVER, S-9, AROCLOR 1254 (4%, 10%), Method: STANDARD PLATE). Also, the mutagenic call (Test System: AMES SALMONELLA TYPHIMURIUM, Strain/Indicator: TA102, Metabolic Activation: NONE, Method: STANDARD PLATE) is “inactive; negative” and the mutagenic call (Test System: AMES SALMONELLA TYPHIMURIUM, Strain/Indicator: TA102, Metabolic Activation: RAT, LIVER, S-9, AROCLOR 1254 (4%, 10%), Method: STANDARD PLATE) was “inactive; negative”.
In the case of `Nc1cc([N+](=O)[O-])cc([N+](=O)[O-])c1C(=O)O`, the mutagenic call reads like this: (End Point: In vitro chromosomal aberrations, Test System: V79 Chinese hamster fibroblasts, Metabolic Activation: None) “inactive; negative”; (End Point: In vitro micronucleus, Test System: HepG2 human hepatoma cells, Metabolic Activation: None) “active; positive”; (Test System: Ames Salmonella typhimurium, Strain/Indicator: TA98, Metabolic Activation: None, Method: Standard plate) “active; positive”; (Test System: Ames Salmonella typhimurium, Strain/Indicator: TA98, Metabolic Activation: Rat, Liver, S-9, Method: Standard plate) “active; positive”; (Test System: Ames Salmonella typhimurium, Strain/Indicator: TA98NR, Metabolic Activation: None, Method: Standard plate) “active; positive”; (Test System: Ames Salmonella typhimurium, Strain/Indicator: TA100, Metabolic Activation: None, Method: Standard plate) “inactive; negative”. Also, the mutagenic call (Test System: Ames Salmonella typhimurium, Strain/Indicator: TA100, Metabolic Activation: Rat, Liver, S-9, Method: Standard plate) was “inactive; negative”.
